The results in this text go back to ChEMBL document CHEMBL5465560, “Selectivity Literature for EUbOPEN Chemogenomic Library” (2024).

Test [1] addresses T1, Phosphatidylinositol 3-kinase C2 domain-containing subunit gamma (Homo sapiens) (UniProt O75747).
T1 sequence (whole entry): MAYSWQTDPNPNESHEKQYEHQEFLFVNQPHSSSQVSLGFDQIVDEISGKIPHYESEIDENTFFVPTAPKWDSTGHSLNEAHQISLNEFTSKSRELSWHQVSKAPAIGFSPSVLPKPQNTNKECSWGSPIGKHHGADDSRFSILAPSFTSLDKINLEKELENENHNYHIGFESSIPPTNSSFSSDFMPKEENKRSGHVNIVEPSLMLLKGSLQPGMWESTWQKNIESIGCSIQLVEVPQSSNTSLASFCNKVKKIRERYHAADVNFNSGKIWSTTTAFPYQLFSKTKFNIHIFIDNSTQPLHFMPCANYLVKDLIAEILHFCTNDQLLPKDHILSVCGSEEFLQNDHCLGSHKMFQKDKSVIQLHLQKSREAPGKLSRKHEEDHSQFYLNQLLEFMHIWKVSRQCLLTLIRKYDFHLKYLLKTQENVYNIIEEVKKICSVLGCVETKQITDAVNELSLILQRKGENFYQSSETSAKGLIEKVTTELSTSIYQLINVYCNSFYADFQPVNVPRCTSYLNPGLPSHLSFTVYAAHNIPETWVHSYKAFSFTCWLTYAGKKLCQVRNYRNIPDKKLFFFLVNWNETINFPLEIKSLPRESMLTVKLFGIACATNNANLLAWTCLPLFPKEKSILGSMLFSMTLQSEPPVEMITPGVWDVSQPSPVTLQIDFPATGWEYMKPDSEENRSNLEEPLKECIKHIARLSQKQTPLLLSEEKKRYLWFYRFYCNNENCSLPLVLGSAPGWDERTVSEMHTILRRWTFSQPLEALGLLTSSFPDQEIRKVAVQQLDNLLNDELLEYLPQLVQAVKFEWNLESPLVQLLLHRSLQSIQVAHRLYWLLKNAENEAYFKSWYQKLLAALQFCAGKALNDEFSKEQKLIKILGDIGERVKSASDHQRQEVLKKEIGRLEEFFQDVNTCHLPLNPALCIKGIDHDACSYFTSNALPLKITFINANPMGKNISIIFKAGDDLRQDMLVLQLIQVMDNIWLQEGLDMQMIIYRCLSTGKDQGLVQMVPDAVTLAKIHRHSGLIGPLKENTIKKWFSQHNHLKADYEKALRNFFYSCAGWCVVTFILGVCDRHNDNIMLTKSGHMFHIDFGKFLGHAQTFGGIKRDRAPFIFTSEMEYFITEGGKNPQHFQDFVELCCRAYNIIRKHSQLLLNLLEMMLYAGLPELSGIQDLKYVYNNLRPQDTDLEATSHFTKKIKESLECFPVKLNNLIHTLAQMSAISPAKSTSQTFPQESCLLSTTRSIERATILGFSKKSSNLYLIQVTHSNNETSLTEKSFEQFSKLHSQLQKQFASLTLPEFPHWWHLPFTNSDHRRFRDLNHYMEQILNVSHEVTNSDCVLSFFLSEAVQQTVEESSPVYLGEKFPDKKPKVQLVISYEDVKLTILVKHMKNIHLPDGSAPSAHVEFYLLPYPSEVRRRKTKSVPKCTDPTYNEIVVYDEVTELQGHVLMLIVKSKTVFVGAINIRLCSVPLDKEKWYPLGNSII
Put plainly: Selectivity interaction (ProQinase) EUB0000171b PIK3C2G.

Test [2] addresses Bone morphogenetic protein receptor type-1B (Homo sapiens, UniProt O00238). As to the kind of experiment: Selectivity interaction (KinomeScan (DiscoverX)) EUB0001079a BMPR1B. The conditions noted are these: at 1 µM.
Test [3] has as its target T2, Mitogen-activated protein kinase kinase kinase kinase 2 (Homo sapiens) (UniProt Q12851).
T2 sequence (whole entry): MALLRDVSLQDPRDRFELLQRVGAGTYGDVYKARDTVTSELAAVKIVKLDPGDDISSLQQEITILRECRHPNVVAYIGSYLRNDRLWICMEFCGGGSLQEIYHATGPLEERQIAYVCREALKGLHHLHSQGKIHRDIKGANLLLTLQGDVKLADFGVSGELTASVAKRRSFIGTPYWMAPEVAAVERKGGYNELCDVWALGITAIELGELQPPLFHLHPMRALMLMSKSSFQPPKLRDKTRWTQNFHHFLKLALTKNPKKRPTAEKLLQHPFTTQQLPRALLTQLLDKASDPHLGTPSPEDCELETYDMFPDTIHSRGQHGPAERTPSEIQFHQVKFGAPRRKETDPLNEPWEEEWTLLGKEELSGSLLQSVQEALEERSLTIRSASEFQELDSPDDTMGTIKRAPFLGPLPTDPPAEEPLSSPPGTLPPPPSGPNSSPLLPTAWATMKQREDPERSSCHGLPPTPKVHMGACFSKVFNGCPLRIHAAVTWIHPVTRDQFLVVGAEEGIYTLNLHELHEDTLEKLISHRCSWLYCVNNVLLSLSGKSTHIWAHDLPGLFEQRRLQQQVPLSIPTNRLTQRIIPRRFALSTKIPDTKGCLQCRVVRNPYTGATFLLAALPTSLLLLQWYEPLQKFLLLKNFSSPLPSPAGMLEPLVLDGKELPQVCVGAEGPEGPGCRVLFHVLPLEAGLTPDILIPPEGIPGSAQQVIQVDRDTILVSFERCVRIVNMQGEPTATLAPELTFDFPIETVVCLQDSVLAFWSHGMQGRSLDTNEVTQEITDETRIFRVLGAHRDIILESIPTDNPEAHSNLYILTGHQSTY
As to the kind of experiment: Selectivity interaction (KinomeScan (DiscoverX)) EUB0000666a MAP4K2. Particulars: at 10 µM.

Test [4] concerns the target Cyclin-dependent kinase 18 (Homo sapiens) (UniProt Q07002). Put plainly: Selectivity interaction (ActivX KiNativ screen (kinase selectivity in THP-1 cell lysates)) EUB0000639a CDK18. The class given is subcellular. The conditions noted are these: lysate, at 0.2 µM.
Test [5] addresses Tyrosine-protein kinase BTK (Homo sapiens, UniProt Q06187). Put plainly: Selectivity interaction (Kinome Scan (DiscoverX)) EUB0000229b BTK. Particulars: at 10 µM.

Sequence of Tyrosine-protein kinase BTK (Q06187 whole entry): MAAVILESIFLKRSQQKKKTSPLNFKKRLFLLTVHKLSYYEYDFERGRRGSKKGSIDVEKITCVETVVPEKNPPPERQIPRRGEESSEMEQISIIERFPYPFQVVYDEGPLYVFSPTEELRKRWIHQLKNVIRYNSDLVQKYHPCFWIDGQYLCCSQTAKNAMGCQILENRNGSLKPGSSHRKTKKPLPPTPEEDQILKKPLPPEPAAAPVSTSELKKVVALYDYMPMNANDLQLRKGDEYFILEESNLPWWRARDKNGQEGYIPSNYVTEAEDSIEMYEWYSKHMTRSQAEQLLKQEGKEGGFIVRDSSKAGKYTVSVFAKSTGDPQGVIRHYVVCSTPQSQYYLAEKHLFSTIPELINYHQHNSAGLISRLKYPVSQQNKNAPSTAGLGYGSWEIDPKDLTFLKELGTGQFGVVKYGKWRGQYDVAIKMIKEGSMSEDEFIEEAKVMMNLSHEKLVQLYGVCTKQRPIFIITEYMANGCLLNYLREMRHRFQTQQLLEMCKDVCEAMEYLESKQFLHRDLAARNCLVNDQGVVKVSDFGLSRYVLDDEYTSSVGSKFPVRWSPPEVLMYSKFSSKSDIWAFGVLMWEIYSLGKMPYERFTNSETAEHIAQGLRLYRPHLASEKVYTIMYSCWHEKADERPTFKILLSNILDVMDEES
Sequence of Cyclin-dependent kinase 18 (Homo sapiens) (Q07002 whole entry): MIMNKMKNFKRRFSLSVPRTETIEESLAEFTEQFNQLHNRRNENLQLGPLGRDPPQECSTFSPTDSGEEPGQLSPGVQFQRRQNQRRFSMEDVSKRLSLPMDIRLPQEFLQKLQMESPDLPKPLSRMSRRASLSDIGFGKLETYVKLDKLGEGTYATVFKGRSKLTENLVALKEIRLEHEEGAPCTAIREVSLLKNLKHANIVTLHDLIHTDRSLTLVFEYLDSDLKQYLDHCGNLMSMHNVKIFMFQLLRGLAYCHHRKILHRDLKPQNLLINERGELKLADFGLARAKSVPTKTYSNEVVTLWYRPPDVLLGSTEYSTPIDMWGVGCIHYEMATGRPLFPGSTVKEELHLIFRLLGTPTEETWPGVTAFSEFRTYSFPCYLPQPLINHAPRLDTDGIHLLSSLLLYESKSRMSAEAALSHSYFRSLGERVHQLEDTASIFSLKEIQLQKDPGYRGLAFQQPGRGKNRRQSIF
Sequence of Bone morphogenetic protein receptor type-1B (O00238 whole entry): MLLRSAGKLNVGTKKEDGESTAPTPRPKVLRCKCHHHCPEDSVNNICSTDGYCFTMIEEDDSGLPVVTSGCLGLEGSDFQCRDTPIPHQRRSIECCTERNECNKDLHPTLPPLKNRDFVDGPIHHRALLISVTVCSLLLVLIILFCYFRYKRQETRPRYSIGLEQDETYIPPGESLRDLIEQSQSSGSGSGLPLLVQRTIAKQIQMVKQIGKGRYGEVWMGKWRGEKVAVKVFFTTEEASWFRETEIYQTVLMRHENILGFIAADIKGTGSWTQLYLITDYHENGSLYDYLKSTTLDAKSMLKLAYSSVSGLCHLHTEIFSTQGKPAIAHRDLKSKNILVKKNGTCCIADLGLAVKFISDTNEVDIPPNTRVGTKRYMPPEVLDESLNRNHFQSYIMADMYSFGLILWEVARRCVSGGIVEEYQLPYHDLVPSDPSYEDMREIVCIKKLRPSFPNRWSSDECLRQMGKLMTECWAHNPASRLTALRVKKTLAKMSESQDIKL

Regarding `C=CC(=O)Nc1cccc(C(=O)Nc2ccc(Nc3cc(-c4[nH]c(SC)nc4C)ccn3)cc2)c1`, the % of control is 129% in test [1] (at 1 µM) and 108% in test [1] (at 5 µM).
As for `Nc1cnc(N2CCc3cc(S(=O)(=O)Nc4c(F)cc(Cl)cc4F)cc(N4CCCC4=O)c32)nc1` [TP-020n], the % of control in test [2] is 100%.
Consider `O=C(NOC[C@H](O)CO)c1ccc(F)c(F)c1Nc1ccc(I)cc1F`, for which the % of control in test [3] was determined as 100%.
In test [4], `CC[C@@H]1[C@H](F)C(=O)N[C@@H]1COc1nccc2cc(C(N)=O)c(OC)cc12` [ZIMLOVISERTIB] registered a % of inhibition of 0.4%.
As for `COc1cc(N(C)c2ccnc3ccc(C(F)(F)F)cc23)cc(OC)c1OC`, the % binding in test [5] is 100%.
